Data: patent publication US20090131343A1, “USE OF BRIDGED MACROLIDES OR TYLOSIN DERIVATIVES IN TREATING INFLAMMATORY BOWEL DISEASES” (priority 2007, published 2009)

System: NFkB
Experiment: In vitro inflammatory assay: TNFα-induced NFkB luciferase reporter in Jurkat cells
Type: cell-based
Conditions: for IC50 / inhibition at 120 µM: Homo sapiens; for IC50: read-out: IC50 (μM), in vitro inflammatory data (inhibition of NFkB activity)
Protocol: I. Protocol for In Vitro Inflammatory Assay:
• 1. Jurkat cell line expressing a luciferase reporter under the control of an NFkB promoter sequence was created. Clones were isolated using G418 and then characterized for enhanced luciferase activity following stimulation of cells with either TNFα or PMA+Ionomycin. • 2. Assay protocol was as follows: • Day 1: Cells were split to a density of 1.1×10^5 cells/mL. • Day 2: • Cells were adjusted to a density of 2×10^5/mL. • 100 μl of cells were added to each well of a 96-well plate. • Test compounds were diluted to 200 μg/mL in media (1% DMSO). • 100 μl of diluted test compound was added to cells. Final test compound concentration from […] was added and the final DMSO concentration=0.5%. Compounds were tested in duplicate. • Plates were incubated 1 hour at 37° C. • 10 μl of a 2.1 nM TNFα solution was added to each well. Plates were returned to 37° C. for another 4 hours. • TNFα-induced luciferase activity was determined using commercially available kits and a microplate luminometer. • Inhibition of NFkB activity was determined by comparing luciferase activity from test compound-treated cells to luciferase activity in 0.5% DMSO-treated (control) cells.

[1] = Jurkat NFkB-luciferase reporter cells, TNFα stimulation, 1 hour preincubation + 4 hours
[2] = Jurkat NFkB-luciferase reporter cells, TNFα stimulation

Row | IC50 [1] | SMILES | also measured
1 | 41 µM | C=CCOC1C(C)OC(O[C@H]2[C@@H](CC=O)C[C@@H](C)C(=O)/C=C/C=C/C[C@@H](C)OC(=O)/C=C/[C@@H]2OC)C(O)C1N(C)C (stereo partly shown) [Entry 8] | 
2 | 30 µM | CC[C@H]1OC(=O)[C@H](C)[C@@H](C)[C@H](C)[C@H](OC2O[C@H](C)C[C@H](N(C)C)[C@@H]2OC(=O)c2ccccc2)[C@](C)(O)C[C@H](C)/C(=N\OCOCCN2CCN(c3ccccc3)CC2)[C@@H](C)[C@H](O)[C@@]1(C)O (stereo partly shown) [Entry 10] | 
3 | 17 µM | CC[C@H]1OC(=O)C[C@@H](O)[C@H](C)[C@@H](OC2O[C@H](C)[C@@H](OC(=O)c3ccccc3)[C@H](C(C)C)[C@H]2OC(=O)c2ccccc2)[C@@H](CC=O)C[C@@H](C)C(=O)/C=C/C(C)=C/[C@@H]1CO (stereo partly shown) [Entry 12] | 
4 |  | CC[C@H]1OC(=O)[C@H](C)[C@@H](O[C@H]2C[C@@](C)(OC)[C@@H](O)[C@H](C)O2)[C@H](C)[C@@H](O[C@@H]2O[C@H](C)C[C@H](N(C)C)[C@H]2O)[C@](C)(O)C[C@@H](C)C(=O)[C@H](C)[C@@H](O)[C@]1(C)O [Erythromycin] | IC50 (μM), in vitro inflammatory data (inhibition of NFkB activity) [1]: Inactive
5 | > 120 µM | CO[C@@H]1[C@@H](O[C@@H]2O[C@H](C)[C@@H](O[C@H]3C[C@@](C)(O)[C@@H](OC(=O)CC(C)C)[C@H](C)O3)[C@H](N(C)C)[C@H]2O)[C@@H](CC=O)C[C@@H](C)[C@@H](O)/C=C/C=C/C[C@@H](C)OC(=O)C[C@H]1OC(C)=O [Josamycin] | inhibition at 120 µM [2]: ~20%
6 | > 120 µM | CC[C@H]1OC(=O)C[C@@H](O)[C@H](C)[C@@H](O[C@@H]2O[C@H](C)[C@@H](O[C@H]3C[C@@](C)(O)[C@@H](O)[C@H](C)O3)[C@H](N(C)C)[C@H]2O)[C@@H](CC=O)C[C@@H](C)C(=O)/C=C/C(C)=C/[C@@H]1CO[C@@H]1O[C@H](C)[C@@H](O)[C@@H](OC)[C@H]1OC [Tylosin] | inhibition at 120 µM [2]: ~20%
7 |  | CC[C@H]1OC(=O)C[C@@H](O)[C@H](C)[C@@H](O[C@@H]2O[C@H](C)[C@@H](OC(=O)c3ccccc3)[C@H](N(C)C)[C@H]2OC(=O)c2ccccc2)[C@@H](CC=O)C[C@@H](C)C(=O)/C=C/C(C)=C/[C@@H]1CO [compound (3)] | activity in vitro inflammatory assay compared with Erythromycin, Clarithromycin, Josamycin and Tylosin (comparison in words): improved activity

Row | SMILES | IC50 [1] | also measured
8 | CC[C@@H]1OC(=O)C[C@H](O)[C@@H](C)[C@H](OC2O[C@H](C)[C@H](OC(C)=O)[C@H](N(C)C)[C@@H]2OC(C)=O)[C@H](CCO)C[C@H](C)C(=O)/C=C/C(C)=C/[C@@H]1CO[Si](C)(C)C(C)(C)C (stereo partly shown) [Entry 11] | 22 µM | 
